Measurements as given in patent publication US20260053902A1, “COMPOSITIONS AND METHODS FOR REDUCING THE RATE OF TYPE 1 DIABETES” (Wisconsin Alumni Research Foundation, priority 2023, published 2026).
Ends that are not written are not given here. * marks the point of attachment. Cam = NC(=O)C*

Columns and labels:
[1] = test system: NOD mouse; assay: Rate of type 1 diabetes and final blood glucose in treated female NOD/ShiLtJ mice; format: in vivo; settings: for rate of diabetes: EGCG IP in saline from age 3-5 days
Procedure: Mouse care: NOD/ShiLtJ mice were from The Jackson Laboratory (Bar Harbor, ME, USA). Mice were housed under standard conditions (20-24° C., humidity 30-70%, lighting regimen 12 h light/12 h dark) in the University of Wisconsin Biomedical Research Model Service that is a specific pathogen free level 1 facility. […] Mice had access to acidified water or water containing a chemical and/or green tea ad libitum. All procedures were approved by the Research Animal Resources and Compliance veterinary care authority of the University of Wisconsin, Madison.
Mouse treatments: Mice were given chemicals by intraperitoneal injection and/or by gavage and/or in drinking water. Water-soluble chemicals were administered in a solution of sodium chloride adjusted to have a final osmolality of 0.5-0.9%. Lipid soluble chemicals were dissolved in olive oil, peanut oil, corn oil, Mazola® oil or canola oil.
Starting at age 2 to 5 days mice were given injections on every third or fourth day for 2 to 4 weeks (usually 2 to 2.5 weeks) for the first 4 or 6 injections, and thereafter twice per week on Mondays and Thursdays until up to age 100 days. In some instances, pregnant and nursing mice were given chemicals in drinking water starting at about the middle or late pregnancy continuing during nursing and also continuing for various lengths of time to the offspring with or without additional intraperitoneal injections of chemicals. In other instances, chemicals were delivered by intraperitoneal injection into pregnant mice and continued after delivery into the mouse pups. Chemicals, for example EGCG, were also delivered in drinking water starting before birth to the pregnant mouse mother and/or continuing and/or starting ad libitum to the mice after birth usually until at least 100 days of age or throughout life.
Chemicals given in distilled drinking water were green tea (as a source of EGCG and other catechins) (Lipton® 100% Natural Green Tea). […] The tea water was given alone and also in combination with acetaminophen 2 g/l in the same water.
In most cases nondiabetic mice were euthanized at 40-41 weeks of age. Statistical significances of the frequencies of diabetes in the mice receiving test treatments were compared to the rates of diabetes in mice receiving control treatments and were calculated with the Chi square test and with the Chi square test with Yate's correction.
In most of the studies, control solutions and the other treatments were administered to the mice until they were 100 days old. Mice without diabetes were euthanized at 40-41 weeks of age. Diabetic mice were euthanized when their blood glucose levels reached a level that met the criteria for diabetes.
Administration of water-soluble chemicals serving as controls to NOD mice: Control solutions were the vehicles in which chemicals were dissolved. Control solutions were usually administered to mouse litters from the same shipments as the litters receiving test chemicals and/or litters from the same parents as the litters receiving test chemicals and were administered during the same month and year as treatments to the litters receiving test treatments. Statistical probabilities between the rates of diabetes in the litters receiving test treatments were compared to litters simultaneously receiving control treatments.

[2] = test system: NOD mouse; settings: Fu et al.: 1 mM EGCG in drinking water, given after age 5 weeks; 12 mice; 32 weeks of age; cited from earlier work
[3] = test system: mice; settings: mouse, in vivo
Text: Intraperitoneal injections of water-soluble chemicals were given in normal saline (0.9% sodium chloride).

[4] = pure oleocanthal (oil) 50 μmol/kg, no carrier, IP til wean, then gavage
[5] = menaquinone-4 200 μmol/kg IP in olive oil, age 40 weeks
[6] = menaquinone-4 200 μmol/kg IP in peanut oil
[7] = 50 μmol/kg IP in saline from age 3-5 days until 59-63 or 93-95 days, age 41-44 weeks
[8] = 1 mM in drinking water, oral, from 1-4 days after birth
[9] = 60 day treatment (stopped at age 59-60 days), 50 μmol/kg IP in saline, age 40 weeks
[10] = IP 50 μmol/kg in saline til wean (21 days), then gavage 100 μmol/kg until 97-98 days
[11] = started post wean (21 days) until 99 days, 50 μmol/kg IP in ¾ saline
[12] = 100 μmol/kg IP in saline, age 34 weeks
[13] = 1500 μmol/kg in olive oil, IP til wean (21 days), then gavage until 98 days, age 40 weeks
[14] = 2000 μmol/kg IP in olive oil, age 40 weeks
[15] = hydroxytyrosol alone, 325 μmol/kg first 5 weeks, 650 thereafter, IP in ¾ saline
[16] = quercetin 200 μmol/kg IP in olive oil, age 40 weeks
[17] = quercetin 200 μmol/kg IP in peanut oil
[18] = 200 μmol/kg in ¾ saline, IP til wean (21 days), then gavage until 55-62 days, age 35 weeks
[19] = 20 μmol/kg IP in saline until age 58-61 days, age 34 weeks
[20] = 20 ug, then 40 μg after 3 weeks, IP in 5% DMSO/95% saline
[21] = 200 μmol/kg IP in saline, age 40 weeks
[22] = 40 μg twice/week for two weeks then once per week until 14 weeks old, IP in 5% DMSO/95% saline
[23] = 2000-3500 μmol/kg IP in olive oil, age 40 weeks
[24] = 2000-3500 μmol/kg IP in peanut oil
[25] = started post wean, 3100-4000 μmol/kg IP in olive oil
[26] = 20 ug once per week for first 3 weeks, then 40 μg once per week until 100-110 days, IP in 5% DMSO/95% saline, age 40 weeks

## C/C=C(/C=O)[C@@H](CC=O)CC(=O)OCCc1ccc(O)cc1 [Oleocanthal (oil)]
[1]; [4]
  Diabetes (%): 35%
  Final Blood Glucose (mean ± SE) diabetic: 560 ± 61 mg glucose/dl
  Final Blood Glucose (mean ± SE) non-diabetic: 178 ± 7 mg glucose/dl

## CC(C)=CCC/C(C)=C/CC/C(C)=C/CC/C(C)=C\CC1=C(C)C(=O)c2ccccc2C1=O [Menaquinone-4, 3-methyl-2-[(2Z,6E,10E)-3,7,11,15-tetramethylhexadeca-2,6,10,14-tetraenyl]naphthalene-1,4-dione, reference compound]
[1]; 200 μmol/kg in olive oil, IP til wean (21 days), then gavage until 98 days, mice 24-30 weeks old, study ongoing
  Diabetes (%): 25%
[1]; 30 day treatment, 200 μmol/kg IP in olive oil, mice 20-40 weeks old, study ongoing
  Diabetes (%): 32%
[1]; 60 day treatment, 200 μmol/kg IP in olive oil, mice 34-36 weeks old, study ongoing
  Diabetes (%): 4%
[1]; [5]
  Diabetes (%): 0%
  Final Blood Glucose (mean ± SE) non-diabetic: 172 ± 15 mg glucose/dl
[1]; [6]
  Diabetes (%): 50%
  Final Blood Glucose (mean ± SE) diabetic: 706 ± 25 mg glucose/dl
  Final Blood Glucose (mean ± SE) non-diabetic: 164 ± 9 mg glucose/dl

## O=C(O[C@@H]1Cc2c(O)cc(O)cc2O[C@@H]1c1cc(O)c(O)c(O)c1)c1cc(O)c(O)c(O)c1 [EGCG, (2R,3R)-5,7-Dihydroxy-2-(3,4,5-trihydroxyphenyl)-3,4-dihydro-2H-1-benzopyran-3-yl 3,4,5-trihydroxybenzoate]
[2]
  mice that had diabetes: 25%
[1]; [7]
  Diabetes (%): 35%
  Final Blood Glucose (mean ± SE) diabetic: 685 ± 34 mg glucose/dl
  Final Blood Glucose (mean ± SE) non-diabetic: 159 ± 5 mg glucose/dl
[1]; [8]
  Diabetes (%): 40%
  Final Blood Glucose (mean ± SE) diabetic: 708 ± 24 mg glucose/dl
  Final Blood Glucose (mean ± SE) non-diabetic: 172 ± 4 mg glucose/dl
[1]; [9]
  Diabetes (%): 33%
  Final Blood Glucose (mean ± SE) diabetic: 663 ± 57 mg glucose/dl
  Final Blood Glucose (mean ± SE) non-diabetic: 145 ± 4 mg glucose/dl
[1]; treatment ending after 59-63 days, age 41-44 weeks
  rate of diabetes: 38%
[1]; treatment ending after 93-95 days, age 41-44 weeks
  rate of diabetes: 31%
[1]; [10]
  Diabetes (%): 50%
  Final Blood Glucose (mean ± SE) diabetic: 624 ± 33 mg glucose/dl
  Final Blood Glucose (mean ± SE) non-diabetic: 200 ± 12 mg glucose/dl
[1]; [11]
  Diabetes (%): 29%
  Final Blood Glucose (mean ± SE) diabetic: 605 ± 59 mg glucose/dl
  Final Blood Glucose (mean ± SE) non-diabetic: 166 ± 4 mg glucose/dl
[1]; started post wean, 250 μmol/kg by gavage in water, mice 24-27 weeks old, study ongoing
  Diabetes (%): 25%

## O=C(O)/C=C/c1ccc(O)c(O)c1 [Caffeic Acid, reference compound]
[1]; [12]
  Diabetes (%): 65%
  Final Blood Glucose (mean ± SE) diabetic: 611 ± 32 mg glucose/dl
  Final Blood Glucose (mean ± SE) non-diabetic: 178 ± 15 mg glucose/dl

## CC1=C(C=O)C(C)(C)CC=C1 [Safranal, 2,6,6-Trimethylcyclohexa-1,3-diene-1-carbaldehyde]
[1]; [13]
  Diabetes (%): 36%
  Final Blood Glucose (mean ± SE) diabetic: 595 ± 36 mg glucose/dl
  Final Blood Glucose (mean ± SE) non-diabetic: 172 ± 8 mg glucose/dl
[1]; [14]
  Diabetes (%): 32%
  Final Blood Glucose (mean ± SE) diabetic: 606 ± 60 mg glucose/dl
  Final Blood Glucose (mean ± SE) non-diabetic: 159 ± 5 mg glucose/dl

## OCCc1ccc(O)c(O)c1 [Hydroxytyrosol, 4-(2-hydroxyethyl)benzene-1,2-diol]
[1]; [15]
  Diabetes (%): 59%
  Final Blood Glucose (mean ± SE) diabetic: 672 ± 24 mg glucose/dl
  Final Blood Glucose (mean ± SE) non-diabetic: 173 ± 12 mg glucose/dl

## O=c1c(O)c(-c2ccc(O)c(O)c2)oc2cc(O)cc(O)c12 [Quercetin]
[1]; [16]
  Diabetes (%): 26%
  Final Blood Glucose (mean ± SE) diabetic: 610 ± 56 mg glucose/dl
  Final Blood Glucose (mean ± SE) non-diabetic: 178 ± 7 mg glucose/dl
[1]; [17]
  Diabetes (%): 47%
  Final Blood Glucose (mean ± SE) diabetic: 651 ± 25 mg glucose/dl
  Final Blood Glucose (mean ± SE) non-diabetic: 171 ± 11 mg glucose/dl

## C[S+]([O-])CCCCN=C=S (stereo not shown) [Sulforaphane, 1-Isothiocyanato-4-(methanesulfinyl)butane]
[1]; [18]
  Diabetes (%): 42%
  Final Blood Glucose (mean ± SE) diabetic: 619 ± 37 mg glucose/dl
  Final Blood Glucose (mean ± SE) non-diabetic: 154 ± 7 mg glucose/dl

## COC1=C(OC)C(=O)C(C)=CC1=O [CoQ0, 2,3-dimethoxy-5-methyl-1,4-benzoquinone, reference compound]
[3]
  toxicity: toxicity to the mice
[1]; [19]
  Diabetes (%): 83%
  Final Blood Glucose (mean ± SE) diabetic: 649 ± 53 mg glucose/dl
  Final Blood Glucose (mean ± SE) non-diabetic: 183 ± 28 mg glucose/dl

## VEALYLVCGERG (VEALYLVC(Cam)GERG) [Ins B12-23 19CAM]
[1]; [20]
  Diabetes (%): 47%
  Final Blood Glucose (mean ± SE) diabetic: 679 ± 32 mg glucose/dl
  Final Blood Glucose (mean ± SE) non-diabetic: 160 ± 6 mg glucose/dl

## CC(S)C(=O)NCC(=O)O (stereo not shown) [Tiopronin, reference compound]
[1]; [21]
  Diabetes (%): 74%
  Final Blood Glucose (mean ± SE) diabetic: 685 ± 19 mg glucose/dl
  Final Blood Glucose (mean ± SE) non-diabetic: 175 ± 12 mg glucose/dl

## VEALYLVCEGEEG (VEALYLVC(Cam)EGEEG) [Ins B12-23 19CAM22R-E, insulin B12-23 mimotope peptide treated with iodoacetamide to carboxyamidomethylate the cysteine residue]
[1]; [22]
  Diabetes (%): 54%
  Final Blood Glucose (mean ± SE) diabetic: 569 ± 70 mg glucose/dl
  Final Blood Glucose (mean ± SE) non-diabetic: 166 ± 7 mg glucose/dl

## CC1=C(C/C=C(\C)CCC[C@H](C)CCC[C@H](C)CCCC(C)C)C(=O)c2ccccc2C1=O [Phylloquinone, reference compound]
[1]; 110 μmol/kg IP in olive oil
  Diabetes (%): 38%
  Final Blood Glucose (mean ± SE) diabetic: 648 ± 37 mg glucose/dl
  Final Blood Glucose (mean ± SE) non-diabetic: 174 ± 5 mg glucose/dl
[1]; [23]
  Diabetes (%): 21%
  Final Blood Glucose (mean ± SE) diabetic: 647 ± 27 mg glucose/dl
  Final Blood Glucose (mean ± SE) non-diabetic: 163 ± 5 mg glucose/dl
[1]; [24]
  Diabetes (%): 40%
  Final Blood Glucose (mean ± SE) diabetic: 646 ± 40 mg glucose/dl
  Final Blood Glucose (mean ± SE) non-diabetic: 167 ± 10 mg glucose/dl
[1]; [25]
  Diabetes (%): 36%
  Final Blood Glucose (mean ± SE) diabetic: 677 ± 20 mg glucose/dl
  Final Blood Glucose (mean ± SE) non-diabetic: 156 ± 6 mg glucose/dl

## SHLVEALYLVCGEEG (SHLVEALYLVC(Cam)GEEG) [Ins B9-23 19CAM22R-E, insulin B chain 9-23 mimotope peptide treated with iodoacetamide to carboxyamidomethylate the cysteine residue at position 19]
[1]; [26]
  Diabetes (%): 17%
  Final Blood Glucose (mean ± SE) diabetic: 681 ± 82 mg glucose/dl
  Final Blood Glucose (mean ± SE) non-diabetic: 159 ± 6 mg glucose/dl
